Data on 18 compounds can be found in patent US8017612B2, “Piperazine compound and use thereof as a HCV polymerase inhibitor” (priority 2006, dated 2011).

Test [1] addresses T1, HCV polymerase (NS5B) type 1a (Hepatitis C virus genotype 1a, UniProt P26664).
T1 construct: made in house; host or cells: Escherichia coli (by the 'similar method' of the 1b enzyme)
Description: Assay of enzyme (HCV polymerase) inhibitory activity, type 1a enzyme. The test is classed as biochemical, HCV type 1a (cloned from the blood of patients). The essentials: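 IC50 values derive from radioactivity of newly synthesized RNA with versus without test compound. The enzyme was C-terminally truncated type 1a NS5B, 1.5 μg/ml, run 60 min at 25° C with 3H-UTP-labelled nucleotides.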

Test [2] addresses T2, HCV polymerase (NS5B) type 1b (Hepatitis C virus genotype 1b, UniProt P26663).
T2 construct: a region encoding NS5B (J Virol 1991 March, 65(3), 1105-13, 544 amino acids after deletion of 47 amino acids on the C-terminal); 6xHis (C); made in house; host or cells: Escherichia coli
As to the kind of experiment: Assay of enzyme (HCV polymerase) inhibitory activity, type 1b enzyme. In kind it is biochemical, HCV BK strain (type 1b). The essentials:
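Polymerase activity was followed as radiolabelled UTP incorporation by E. coli-expressed, His-tagged NS5B of HCV type 1b lacking its last 47 residues. Conditions: 2 μM UTP, 50 μM other NTPs, Mg2+ buffer at pH 7.5, 25 °C for 60 min. Inhibition relative to compound-free reactions gave IC50.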

[3] abbreviates: HCV polymerase inhibitory activity (IC50), 1a, type 1a enzyme 1.5 μg/ml, 25° C., 60 min.
Setting [4] is: HCV polymerase inhibitory activity (IC50), 1b, type 1b enzyme 0.5 μg/ml, 25° C., 60 min.
The mark [5] stands for this setting: HCV polymerase inhibitory activity IC50, 1a, type 1a enzyme.
The mark [6] stands for this setting: HCV polymerase inhibitory activity IC50, 1b, type 1b enzyme.

One may read the IC50 as the concentration that inhibits the measured activity by half. A low value points to inhibition by little substance. For `COC(=O)CCc1cc(S(=O)(=O)N2CCN(C(C)=O)C[C@@H]2C(=O)NCc2ccc(C(C)C)cc2)ccc1OC` [Example 218, 3-{5-[(R)-4-acetyl-2-(4-isopropyl-benzylcarbamoyl)-piperazine-1-sulfonyl]-2-methoxy-phenyl}-propionic acid methyl ester], the concentration for half-maximal inhibition (IC50) in test [1] (setting [3]) and in test [2] (setting [4]) was 100 to 1000 nM throughout.
For `CC(=O)N1CCN(S(=O)(=O)c2ccc(O)cc2)[C@@H](C(=O)NCc2ccc(C(C)C)cc2)C1` [Example 251, (R)-4-acetyl-1-(4-hydroxy-benzenesulfonyl)-piperazine-2-carboxylic acid 4-isopropyl-benzylamide], the 50% inhibitory concentration (IC50) in test [1] (setting [3]) and in test [2] (setting [4]) was > 1000 nM in each case.
Turning to `CCCc1ccc(CNC(=O)[C@H]2CN(c3cnc4[nH]c(=O)[nH]c4n3)CCN2S(=O)(=O)c2ccc(OC(F)(F)F)cc2)cc1` [Example 628, (R)-4-(2-oxo-2,3-dihydro-1H-imidazo[4,5-b]pyrazin-5-yl)-1-(4-trifluoromethoxy-benzenesulfonyl)-piperazine-2-carboxylic acid 4-propyl-benzylamide], the figures for the half-inhibitory concentration (IC50) in test [1] (setting [3]) and in test [2] (setting [4]) were 100 to 1000 nM and < 100 nM, respectively.
Turning to `O=C(NCc1ccc(OC(F)(F)F)cc1)[C@H]1CN(c2nc3cn[nH]c(=O)c3s2)CCN1S(=O)(=O)c1ccc(C(F)(F)F)cc1` [Example 877, (R)-4-(7-oxo-6,7-dihydro-thiazolo[4,5-d]pyridazin-2-yl)-1-(4-trifluoromethyl-benzenesulfonyl)-piperazine-2-carboxylic acid 4-trifluoromethoxy-benzylamide], the IC50 in test [1] (setting [5]) and in test [2] (setting [6]) was < 100 nM each time.
In the case of `CCCc1ccc(CNC(=O)[C@H]2CN(c3nc(CO)c(CO)s3)CCN2S(=O)(=O)c2ccc(OC(F)(F)F)cc2)cc1` [Example 562, (R)-4-(4,5-bis-hydroxymethyl-thiazol-2-yl)-1-(4-trifluoromethoxy-benzenesulfonyl)-piperazine-2-carboxylic acid 4-propyl-benzylamide], the half-inhibitory concentration (IC50) in test [1] (setting [3]) and in test [2] (setting [4]) was < 100 nM throughout.
Take `O=C(NCc1ccc(OC(F)(F)F)cc1)[C@H]1CN(c2cnc3c(Cl)cccc3n2)CCN1S(=O)(=O)c1ccc(OC(F)(F)F)cc1` [Example 766, (R)-4-(5-chloro-quinoxalin-2-yl)-1-(4-trifluoromethoxy-benzenesulfonyl)-piperazine-2-carboxylic acid 4-trifluoromethoxy-benzylamide]: the IC50 was 100 to 1000 nM in test [1] (setting [5]) and < 100 nM in test [2] (setting [6]).
Consider `CC(=O)N1CCN(S(=O)(=O)c2ccc(C(C)(C)C)cc2)C(C(=O)NCc2ccc(C(F)(F)F)cc2)C1` (stereo not drawn) [Example 30, 4-acetyl-1-(4-tert-butyl-benzenesulfonyl)-piperazine-2-carboxylic acid 4-trifluoromethyl-benzylamide], for which the IC50 in test [1] (setting [3]) and in test [2] (setting [4]) was > 1000 nM each time.
Take `O=C(O)c1cnc(N2CCN(S(=O)(=O)c3ccc(OC(F)(F)F)cc3)[C@@H](C(=O)NCc3ccc(OC(F)F)c(F)c3)C2)cn1` [Example 1111, (R)-3-(4-difluoromethoxy-3-fluoro-benzylcarbamoyl)-4-(4-trifluoromethoxy-benzenesulfonyl)-3,4,5,6-tetrahydro-2H-[1,2′]bipyrazinyl-5′-carboxylic acid]: the concentration for half-maximal inhibition (IC50) in test [1] (setting [5]) and in test [2] (setting [6]) was < 100 nM each time.
As for `Cc1nnc2sc(N3CCN(S(=O)(=O)c4ccc(OC(F)(F)F)cc4)[C@@H](C(=O)NCc4ccc(OC(F)(F)F)cc4)C3)nn2c1=O` [Example 986, (R)-4-(3-methyl-4-oxo-4H-[1,3,4]thiadiazolo[2,3-c][1,2,4]triazin-7-yl)-1-(4-trifluoromethoxy-benzenesulfonyl)-piperazine-2-carboxylic acid 4-trifluoromethoxy-benzylamide], the IC50 in test [1] (setting [5]) and in test [2] (setting [6]) was < 100 nM in each case.
Consider `O=C(NCc1ccc(OC(F)(F)F)cc1)[C@H]1CN(c2cnc3cccnc3n2)CCN1S(=O)(=O)c1ccc(OC(F)(F)F)cc1` [Example 770, (R)-4-pyrido[2,3-b]pyrazin-3-yl-1-(4-trifluoromethoxy-benzenesulfonyl)-piperazine-2-carboxylic acid 4-trifluoromethoxy-benzylamide], for which the IC50 in test [1] (setting [5]) and in test [2] (setting [6]) was < 100 nM each time.
As for `CCC(F)(F)c1ccc(CNC(=O)[C@H]2CN(c3nc4cccnc4s3)CCN2S(=O)(=O)c2ccc(OC(F)(F)F)cc2)cc1` [Example 739, (R)-4-thiazolo[5,4-b]pyridin-2-yl-1-(4-trifluoromethoxy-benzenesulfonyl)-piperazine-2-carboxylic acid 4-(1,1-difluoro-propyl)-benzylamide], the IC50 in test [1] (setting [5]) and in test [2] (setting [6]) was < 100 nM in each case.
With `CC(=O)N1CCN(S(=O)(=O)c2ccc(C(C)C)cc2)C(C(=O)NCc2ccc(N(C)C)cc2)C1` (stereo not drawn) [Example 37, 4-acetyl-1-(4-isopropyl-benzenesulfonyl)-piperazine-2-carboxylic acid 4-dimethylamino-benzylamide], the IC50 in test [1] (setting [3]) and in test [2] (setting [4]) was 100 to 1000 nM throughout.
As for `CCCc1ncc(S(=O)(=O)N2CCN(C(C)=O)C[C@@H]2C(=O)NCc2ccc(C(C)C)cc2)s1` [Example 375, (R)-4-acetyl-1-(2-propyl-thiazole-5-sulfonyl)-piperazine-2-carboxylic acid 4-isopropyl-benzylamide], the IC50 in test [1] (setting [3]) and in test [2] (setting [4]) was < 100 nM each time.
For `CC(=O)N1CCN(S(=O)(=O)c2ccc(C(C)C)cc2)C(C(=O)NCCCc2ccccc2)C1` (stereo not drawn) [Example 145, 4-acetyl-1-(4-isopropyl-benzenesulfonyl)-piperazine-2-carboxylic acid (3-phenyl-propyl)-amide], the half-maximal inhibitory concentration (IC50) in test [1] (setting [3]) and in test [2] (setting [4]) was > 1000 nM each time.
`CCN(C)c1ccc(CNC(=O)[C@H]2CN(c3nc(Cl)c(C(=O)O)s3)CCN2S(=O)(=O)c2ccc(OC(F)(F)F)cc2)cc1` [Example 1093, 4-chloro-2-[(R)-3-[4-(ethyl-methyl-amino)-benzylcarbamoyl]-4-(4-trifluoromethoxy-benzenesulfonyl)-piperazin-1-yl]-thiazole-5-carboxylic acid]: the IC50 in test [1] (setting [5]) and in test [2] (setting [6]) was < 100 nM each time.
`CCCc1ccc(CNC(=O)[C@H]2CN(C(C)=O)CCN2S(=O)(=O)c2ccc(OC(F)(F)F)cc2)cc1O` [Example 624, (R)-4-acetyl-1-(4-trifluoromethoxy-benzenesulfonyl)-piperazine-2-carboxylic acid 3-hydroxy-4-propyl-benzylamide]: the figures for the half-maximal inhibitory concentration (IC50) in test [1] (setting [3]) and in test [2] (setting [4]) were > 1000 nM and 100 to 1000 nM, respectively.
As for `CCC(F)(F)c1ccc(CNC(=O)[C@H]2CN(C(=O)Nc3ccnc(Cl)c3)CCN2S(=O)(=O)c2ccc(OC(F)(F)F)cc2)cc1` [Example 517, (R)-4-(4-trifluoromethoxy-benzenesulfonyl)-piperazine-1,3-dicarboxylic acid 1-[(2-chloro-pyridin-4-yl)-amide] 3-[4-(1,1-difluoro-propyl)-benzylamide]], the IC50 in test [1] (setting [3]) and in test [2] (setting [4]) was < 100 nM each time.
With `CCCc1ccc(CNC(=O)[C@H]2CN(c3cnc(C(=O)O)cn3)CCN2S(=O)(=O)c2ccc(OC(F)(F)F)cc2)c(Cl)c1` [Example 474, (R)-3-(2-chloro-4-propyl-benzylcarbamoyl)-4-(4-trifluoromethoxy-benzenesulfonyl)-3,4,5,6-tetrahydro-2H-[1,2′]bipyrazinyl-5′-carboxylic acid], the IC50 in test [1] (setting [3]) and in test [2] (setting [4]) was < 100 nM each time.
